{
  "source": "patent US11878063B2",
  "about": "“Engineered ligands and uses thereof” (Children's Medical Center Corporation, priority 2019, dated 2024)",
  "key": {"[1]": {"target": "T1, PTHR16E (Homo sapiens, UniProt Q03431, A83I/D81R/G76A/K80A/K82Q/P78E/R79L/S71Q/S73D/S75E/T74Q)", "T1 construct": "expressed in transfected cells", "T1 sequence (Q03431 27-593 S71Q/S73D/T74Q/S75E/G76A/P78E/R79L/K80A/D81R/K82Q/A83I)": "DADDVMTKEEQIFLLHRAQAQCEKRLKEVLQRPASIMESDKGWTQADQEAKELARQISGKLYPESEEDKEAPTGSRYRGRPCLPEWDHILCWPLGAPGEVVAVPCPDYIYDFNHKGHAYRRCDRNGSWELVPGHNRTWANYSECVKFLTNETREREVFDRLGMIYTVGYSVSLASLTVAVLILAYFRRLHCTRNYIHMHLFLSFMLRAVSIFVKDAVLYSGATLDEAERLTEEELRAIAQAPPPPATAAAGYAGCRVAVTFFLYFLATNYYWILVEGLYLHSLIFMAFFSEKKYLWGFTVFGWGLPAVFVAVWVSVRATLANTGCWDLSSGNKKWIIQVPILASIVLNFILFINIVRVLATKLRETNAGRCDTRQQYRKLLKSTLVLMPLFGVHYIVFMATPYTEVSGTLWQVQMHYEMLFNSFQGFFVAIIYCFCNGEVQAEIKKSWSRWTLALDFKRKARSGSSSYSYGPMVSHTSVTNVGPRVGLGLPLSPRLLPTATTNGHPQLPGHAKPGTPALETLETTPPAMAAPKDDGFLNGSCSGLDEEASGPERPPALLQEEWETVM", "assay": "cAMP induction in HEK293 cells stably expressing PTHR16E (6E/Ubc6e epitope tag in exon 2 segment)", "assay_type": "cell-based", "conditions": "maximal cAMP response, normalized", "description": "(§1) Measurement of cAMP response. These assays were performed as previously described^27. Briefly, HEK-293-derived cell lines that stably express the Glosensor cAMP reporter (Promega Corp.)^30 and PTHR1, a PTHR1 variant, or PTHR2 were seeded into white sided 96 well plates (50,000 cells/well) and grown to confluency. Confluent monolayers of cells were pre-incubated with CO2 independent medium containing D-luciferin (0.5 mM) at 37° C. until a stable baseline level of luminescence was established (20 min). Varying concentrations of ligands were then added, and the time course of luminescence response was recorded using BioTek plate reader.\n(§2) Data calculations. Data were processed using Microsoft Excel and GraphPad Prism 6. Data from cAMP dose-response assays were analyzed using a sigmoidal dose-response model with variable slope. Data sets were statistically compared by using Student's t test (two-tailed) assuming unequal variances for the two sets.\n(§3) The portion of PTHR1 encoded by exon 2 is not resolved in structural studies (FIG. 12—Panel d)^13, 14, 17, is not important for ligand binding^18, and in past work has been targeted as a site for receptor modification^18, 19. A construct was generated that encodes a PTHR1 variant in which a 14-residue fragment from exon 2 was replaced with a 14-mer epitope tag from the intracellular protein UBC6e (PTHR16E, FIG. 12—Panel d)^20. A receptor construct in which a pH-sensitive green fluorescent protein variant (GFP) was inserted into the portion of the receptor encoded by exon 2 (PTHR1GFP in FIGS. 17A to 17C)^19. Another version of PTHR1 in which yellow fluorescent protein (YFP) replaces the entire extracellular domain (PTHR1YFPΔECD, FIG. 12—Panel e)^21, was also used."}, "[2]": {"test_system": "PTHR1YFPΔECD", "assay": "cAMP induction in HEK293 cells stably expressing PTHR1YFPΔECD (YFP replaces extracellular domain)", "assay_type": "cell-based, human", "description": "as §1, §2, §3"}, "[3]": {"target": "T2, human PTHR1 (Homo sapiens, UniProt Q03431)", "T2 construct": "expressed in transfected cells", "T2 sequence (Q03431 27-593)": "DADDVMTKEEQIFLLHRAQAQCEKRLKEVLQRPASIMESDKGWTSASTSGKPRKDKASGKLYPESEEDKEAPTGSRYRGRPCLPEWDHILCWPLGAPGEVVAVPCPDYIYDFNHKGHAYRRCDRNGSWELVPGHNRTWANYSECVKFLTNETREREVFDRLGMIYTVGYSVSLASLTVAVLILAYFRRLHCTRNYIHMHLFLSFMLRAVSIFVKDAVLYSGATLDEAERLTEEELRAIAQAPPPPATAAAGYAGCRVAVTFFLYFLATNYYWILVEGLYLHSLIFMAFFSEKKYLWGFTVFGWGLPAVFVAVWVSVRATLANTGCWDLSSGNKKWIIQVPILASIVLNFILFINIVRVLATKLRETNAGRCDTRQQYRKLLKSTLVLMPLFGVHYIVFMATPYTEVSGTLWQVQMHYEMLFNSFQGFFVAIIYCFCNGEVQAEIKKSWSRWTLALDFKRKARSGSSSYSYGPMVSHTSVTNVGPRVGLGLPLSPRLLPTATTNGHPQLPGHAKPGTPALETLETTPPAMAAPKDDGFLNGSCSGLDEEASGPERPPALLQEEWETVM", "assay": "β-arrestin2-YFP recruitment in HEK293 cells transiently transfected with human PTHR1 (microscopy)", "assay_type": "cell-based", "conditions": "30 nM PTH(1-34)-TMR; 100 nM conjugate or VHH; 30 min room temperature", "description": "FIGS. 30A-30F: Assessment of β-arrestin recruitment. A HEK293-derived cell line stably expressing a β-arrestin2-YFP fusion^2 was transiently transfected with human PTHR1. […] (red) and the nuclei of all cells were counterstained with DAPI. […] Panels show the same field of view with signal for β-arrestin2-YFP. […] (FIG. 30E) The ligands or VHHs (and concentrations) applied to these cells are VHHPTHR (100 nM). (FIG. 30F) The ligands or VHHs (and concentrations) applied to these cells are Vehicle. Transfected cells were incubated with indicated ligands or VHHs at room temperature for 30 minutes. This solution was aspirated, and the cells were washed twice, fixed with paraformaldehyde, and imaged as described in methods. For each panel the bottom image corresponds to an expanded version of the inset marked by the rectangle in the top image."}},
  "data": [
    {"compound": "CC[C@H](C)[C@H](NC(=O)[C@H](CCC(=O)O)NC(=O)[C@H](CO)NC(=O)[C@@H](NC(=O)[C@@H](N)CO)C(C)C)C(=O)N[C@@H](CCC(N)=O)C(=O)N[C@@H](CC(C)C)C(=O)N[C@@H](CCSC)C(=O)N[C@@H](Cc1cnc[nH]1)C(=O)N[C@@H](CC(N)=O)C(=O)N[C@@H](CC(C)C)C(=O)NCC(=O)N[C@@H](CCCCN)C(=O)N[C@@H](Cc1cnc[nH]1)C(=O)N[C@@H](CC(C)C)C(=O)N[C@@H](CC(N)=O)C(=O)N[C@@H](CO)C(=O)N[C@@H](CCSC)C(=O)N[C@@H](CCC(=O)O)C(=O)N[C@@H](CCCN=C(N)N)C(=O)N[C@H](C(=O)N[C@@H](CCC(=O)O)C(=O)N[C@@H](Cc1c[nH]c2ccccc12)C(=O)N[C@@H](CC(C)C)C(=O)N[C@@H](CCCN=C(N)N)C(=O)N[C@@H](CCCCN)C(=O)N[C@@H](CCCCN)C(=O)N[C@@H](CC(C)C)C(=O)N[C@@H](CCC(N)=O)C(=O)N[C@@H](CC(=O)O)C(=O)N[C@H](C(=O)N[C@@H](Cc1cnc[nH]1)C(=O)N[C@@H](CC(N)=O)C(=O)N[C@@H](Cc1ccccc1)C(=O)O)C(C)C)C(C)C", "note": "[PTH(1-34)]", "values": [
      {"measurement": "Max (normalized ± SD), hPTHR16E", "setting": "[1]", "result": "1 ± 0.0"},
      {"measurement": "Max (normalized ± SD), hPTHR1YFPΔECD", "setting": "[2]; maximal cAMP response, normalized", "result": "1.00 ± 0.00"},
      {"measurement": "EC50", "setting": "[2]; mean ± SD, Inactive = response <5% of maximal, read-out: EC50, cAMP induction, hPTHR1YFPΔECD", "result": "689 ± 301", "unit": "nM"},
      {"measurement": "relocalization of YFP-tagged β-arrestin to puncta", "setting": "[3]", "result": "effectively stimulated"}
    ]}
  ]
}
